How the values were obtained:
[1] = tested on: PBMCs; assay: LPS-induced IL-8 release in PBMC cells (assay b); format: cell-based, human; conditions: Homo sapiens, PBMC; LPS-stimulated PBMCs; read-out: IC50 Values for Inhibition of Cytokine Release, PBMCs IL-8
Method in brief: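 Human PBMCs from healthy donors, isolated by density gradient, were pretreated with compound for 2 h and then stimulated with 1 ng/mL LPS (E. coli 0111:B4) for 24 h at 37° C, 5% CO2. Supernatant IL-8 and TNFα were measured by sandwich ELISA, and IC50 was taken from the dose-response curve.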

[2] = biological target: GSK 3α (Homo sapiens (Human), UniProt P49840); assay: GSK 3α enzyme inhibition (FRET, Z-LYTE, Method 2); format: biochemical; conditions: read-out: IC50 Values for Enzyme Inhibition, GSK3α
Method in brief: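 Phosphorylation of a dual-labelled synthetic peptide by human GSK3α is read as a coumarin/fluorescein ratio after protease development. Compound stocks run 4 to 0.004 μg/mL, and ATP stock is 40 μM.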

[3] = tested on: PBMCs; assay: IFN gamma release in CD3/CD28 stimulated PBMC cells (assay c); format: cell-based; conditions: Homo sapiens, read-out: IC50 Values for Inhibition of Cytokine Release, PBMCs IFNγ
Method in brief: (§1)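 Healthy-donor PBMCs, isolated by density gradient, were plated in wells pre-coated with anti-CD3 (0.3 μg/mL) and anti-CD28 (3 μg/mL) antibodies, then exposed to compound for 3 days under normal culture conditions. IL-2 and IFN gamma in supernatants were measured by sandwich ELISA; IC50 taken from the dose-response curve.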

[4] = biological target: p38 MAPKα isoform (MAPK14) (Homo sapiens (Human), UniProt Q16539); assay: p38 MAPKα enzyme inhibition (FRET, Z-LYTE, Method 2); format: biochemical
Method in brief: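 Z-LYTE FRET: p38 MAPKα (80 ng/mL for Method 1, 200 ng/mL for Method 2, pre-dilution) preincubated 2 hr RT with compound (4–0.004 μg/mL solutions), activity read via MAPKAP-K2 phosphorylation after 1 hr RT and 1 hr protease development. Coumarin/fluorescein ratio gives phosphorylation; % inhibition versus uninhibited control, IC50 from concentration-response curve.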

[5] = biological target: c-Src (Homo sapiens (Human), UniProt P12931); assay: c-Src enzyme inhibition (FRET, Z-LYTE); format: biochemical
Method in brief: (§2)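 Enzyme (c-Src 3000 ng/mL, Syk 2000 ng/mL, as added solutions) was preincubated with compound for 2 hr at RT, then FRET peptide and ATP (added solution 800 μM for c-Src, 60 μM for Syk) for 1 hr. Protease development 1 hr; coumarin/fluorescein emission ratio gave % inhibition, IC50 from concentration-response.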

[6] = tested on: PBMCs; assay: IL-2 release in CD3/CD28 stimulated PBMC cells (assay c); format: cell-based; conditions: Homo sapiens, read-out: IC50 Values for Inhibition of Cytokine Release, PBMCs IL-2
Method in brief: as §1

[7] = tested on: PBMCs; assay: Cell mitosis assay in PBMCs (assay g); format: cell-based; conditions: Homo sapiens, PBMC, test compound 5 μg/mL
Method in brief: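 Human PBMCs from healthy donors, stimulated with 2% PHA for 48 hr, then exposed to test compounds for 20 hr, with demecolcine (0.1 μg/mL) added 2 hr before harvest. Cells fixed/permeabilised, stained for phospho-histone 3 and propidium iodide, and read by flow cytometry gated on lymphocytes. % mitosis inhibition vs 0.5% DMSO vehicle.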

[8] = biological target: Syk (Homo sapiens (Human), UniProt P43405); assay: Syk enzyme inhibition (FRET, Z-LYTE); format: biochemical
Method in brief: as §2

GSK 3α, sequence (P49840 whole entry): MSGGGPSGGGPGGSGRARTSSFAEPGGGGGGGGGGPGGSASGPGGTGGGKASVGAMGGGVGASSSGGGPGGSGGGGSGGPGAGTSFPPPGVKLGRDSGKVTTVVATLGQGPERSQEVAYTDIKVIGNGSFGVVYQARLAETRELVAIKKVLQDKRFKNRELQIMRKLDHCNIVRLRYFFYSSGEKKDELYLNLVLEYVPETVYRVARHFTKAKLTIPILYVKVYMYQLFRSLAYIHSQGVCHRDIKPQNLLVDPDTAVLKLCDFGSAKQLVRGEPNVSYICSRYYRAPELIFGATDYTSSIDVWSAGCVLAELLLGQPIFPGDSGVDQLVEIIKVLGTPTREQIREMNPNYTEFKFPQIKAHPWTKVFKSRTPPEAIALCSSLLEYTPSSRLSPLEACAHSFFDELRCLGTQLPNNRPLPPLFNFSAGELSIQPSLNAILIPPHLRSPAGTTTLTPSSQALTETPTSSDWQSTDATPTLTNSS
p38 MAPKα isoform (MAPK14), sequence (Q16539 whole entry, canonical isoform): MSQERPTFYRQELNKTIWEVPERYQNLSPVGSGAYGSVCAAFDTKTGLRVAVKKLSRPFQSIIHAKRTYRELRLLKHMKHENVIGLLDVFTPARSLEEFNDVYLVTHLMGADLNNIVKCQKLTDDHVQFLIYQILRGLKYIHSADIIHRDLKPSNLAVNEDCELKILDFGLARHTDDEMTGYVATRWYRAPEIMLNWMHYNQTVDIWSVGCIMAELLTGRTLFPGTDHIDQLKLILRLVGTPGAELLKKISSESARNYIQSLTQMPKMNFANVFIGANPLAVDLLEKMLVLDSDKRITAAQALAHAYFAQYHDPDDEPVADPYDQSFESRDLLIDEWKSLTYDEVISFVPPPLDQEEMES
c-Src, sequence (P12931 whole entry, looked up): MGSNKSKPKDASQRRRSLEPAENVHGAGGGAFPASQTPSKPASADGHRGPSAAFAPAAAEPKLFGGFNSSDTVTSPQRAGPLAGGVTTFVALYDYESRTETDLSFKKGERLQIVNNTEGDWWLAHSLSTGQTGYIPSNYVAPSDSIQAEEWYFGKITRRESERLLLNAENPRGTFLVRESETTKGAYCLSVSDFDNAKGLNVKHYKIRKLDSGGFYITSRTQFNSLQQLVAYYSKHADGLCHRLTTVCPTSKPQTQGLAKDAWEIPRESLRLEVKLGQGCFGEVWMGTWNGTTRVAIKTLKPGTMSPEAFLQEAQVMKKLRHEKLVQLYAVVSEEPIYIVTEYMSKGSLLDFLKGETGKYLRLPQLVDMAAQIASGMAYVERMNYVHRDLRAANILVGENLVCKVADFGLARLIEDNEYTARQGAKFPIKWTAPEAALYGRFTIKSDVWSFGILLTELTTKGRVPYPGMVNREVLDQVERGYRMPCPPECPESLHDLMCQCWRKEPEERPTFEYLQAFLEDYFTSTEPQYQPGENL

SMILES	IC50 [2]	IC50 [4]	IC50 [5]	IC50 [8]	IC50 [1]	IC50 [3]	IC50 [6]	inhibition at 5 µg/mL [7]
COc1cc(Nc2cc(Oc3ccc(NC(=O)Nc4cc(C(C)(C)C)cc(P(C)(C)=O)c4OC)c4ccccc34)ccn2)cc(S(=O)(=O)N(C)CCCN2CCOCC2)c1 [79(d), 1-(5-tert-Butyl-3-dimethylphosphoryl-2-methoxy-phenyl)-3-[4-[[2-[3-methoxy-5-[methyl(3-morpholinopropyl)sulfamoyl]anilino]-4-pyridyl]oxy]-1-naphthyl]urea]	3940 nM	39 nM	218 nM	> 1160 nM	3.9 nM	14.6 nM	624 nM	19.9%
COCCOCCOCCNC(=O)c1cc(Nc2cc(Oc3ccc(NC(=O)Nc4cc(C(C)(C)C)cc([S+](C)[O-])c4OC)c4ccccc34)ccn2)cc(OC)c1 (centres unmarked) [Example 48, 3-((4-((4-(3-(5-(tert-Butyl)-2-methoxy-3-(methylsulfinyl)phenyl)ureido)naphthalen-1-yl)oxy)pyridin-2-yl)amino)-5-methoxy-N-(2-(2-(2-methoxyethoxy)ethoxy)ethyl)benzamide]	2670 nM	25 nM	37 nM	> 1230 nM	0.4 nM	3.7 nM	116 nM	35.6%
COc1c(CC(N)=O)cc(C(C)(C)C)cc1NC(=O)Nc1ccc(Oc2ccnc(Nc3cc(C#N)cc(OCCN4CCOCC4)c3)c2)c2ccccc12 [Example 49, 2-(5-(tert-Butyl)-3-(3-(4-((2-((3-cyano-5-(2-morpholinoethoxy)phenyl)amino)pyridin-4-yl)oxy)naphthalen-1-yl)ureido)-2-methoxyphenyl)acetamide]	4510 nM	124 nM	39 nM	> 1340 nM	0.8 nM	5.7 nM	91 nM	43.9%
COc1c(CNC(C)=O)cc(C(C)(C)C)cc1NC(=O)Nc1ccc(Oc2ccnc(Nc3cc(OCCN4CCOCC4)cc(C(F)(F)F)c3)c2)c2ccccc12 [Example 52]	> 12500 nM	> 1250 nM	235 nM	> 1250 nM	2.8 nM	5.5 nM	43.5 nM	46.8%
COc1cc(Nc2cc(Oc3ccc(NC(=O)Nc4cc(C(C)(C)C)cc(S(C)(=O)=O)c4OC)c4ccccc34)ccn2)cc(C(=O)NCCN2CCOCC2)c1 [Example 54, 3-((4-((4-(3-(5-(tert-Butyl)-2-methoxy-3-(methylsulfonyl)phenyl)ureido)naphthalen-1-yl)oxy)pyridin-2-yl)amino)-5-methoxy-N-(2-morpholinoethyl)benzamide]	> 5020 nM	63 nM	43 nM	590 nM	1.5 nM	3.7 nM	37.9 nM	51.9%
COc1cc(Nc2cc(Oc3ccc(NC(=O)Nc4cc(C(C)(C)C)cc(CC(N)=O)c4OC)c4ccccc34)ccn2)cc(S(C)(=O)=O)c1 [Example 56, 2-(5-(tert-Butyl)-2-methoxy-3-(3-(4-((2-((3-methoxy-5-(methylsulfonyl)phenyl)amino)pyridin-4-yl)oxy)naphthalen-1-yl)ureido)phenyl)acetamide]	1600 nM	188 nM	83 nM	> 1430 nM	1.2 nM	9.5 nM	234 nM	17.6%
COc1cc(Nc2cc(Oc3ccc(NC(=O)Nc4cc(C(C)(C)C)cc(P(C)(C)=O)c4OC)c4ccccc34)ccn2)cc(S(=O)(=O)N(C)C)c1 [Example 58, 3-((4-((4-(3-(5-(tert-Butyl)-3-(dimethylphosphoryl)-2-methoxyphenyl)ureido)naphthalen-1-yl)oxy)pyridin-2-yl)amino)-5-methoxy-N,N-dimethylbenzenesulfonamide]	7100 nM	527 nM	101 nM	> 1340 nM	1.4 nM	3.2 nM	587 nM	2.9%
COCCOCCOCCNC(=O)c1cc(Nc2cc(Oc3ccc(NC(=O)Nc4cc(C(C)(C)C)cc(C(=O)NCCN5CCOCC5)c4OC)c4ccccc34)ccn2)cc(OC)c1 [Example 59, 5-(tert-Butyl)-2-methoxy-3-(3-(4-((2-((3-methoxy-5-((2-(2-(2-methoxyethoxy)ethoxy)ethyl)carbamoyl)phenyl)amino)pyridin-4-yl)oxy)naphthalen-1-yl)ureido)-N-(2-morpholinoethyl)benzamide]	2510 nM	127 nM	43 nM	560 nM	1.7 nM	2.9 nM	55.6 nM	30.9%
COc1cc(Nc2cc(Oc3ccc(NC(=O)Nc4cc(C(C)(C)C)cc(C(=O)NCCN5CCOCC5)c4OC)c4ccccc34)ccn2)cc(C(=O)NCCN2CCOCC2)c1 [Example 60, 5-(tert-Butyl)-2-methoxy-3-(3-(4-((2-((3-methoxy-5-((2-morpholinoethyl)carbamoyl)phenyl)amino)pyridin-4-yl)oxy)naphthalen-1-yl)ureido)-N-(2-morpholinoethyl)benzamide]	1700 nM	128 nM	35 nM	206 nM	2.4 nM	7 nM	101 nM	47.5%

The remaining compounds from weak to strong by IC50 [2], led by results:

IC50 [2]	IC50 [4]	IC50 [5]	IC50 [8]	SMILES	IC50 [1]	IC50 [3]	IC50 [6]	inhibition at 5 µg/mL [7]
8710 nM	158 nM	55 nM	> 1340 nM	COc1c(NC(=O)Nc2ccc(Oc3ccnc(Nc4cc(C#N)cc(OCCN5CCOCC5)c4)c3)c3ccccc23)cc(C(C)(C)C)cc1[S+](C)[O-] (centres unmarked) [Example 51, 1-(5-(tert-Butyl)-2-methoxy-3-(methylsulfinyl)phenyl)-3-(4-((2-((3-cyano-5-(2-morpholinoethoxy)phenyl)amino)pyridin-4-yl)oxy)naphthalen-1-yl)urea]	1.3 nM	75.2 nM	101 nM	28%
3870 nM	209 nM	98 nM	> 1500 nM	COc1cc(Nc2cc(Oc3ccc(NC(=O)Nc4cc(C(C)(C)C)cc(OCCO)c4OC)c4ccccc34)ccn2)cc(C(N)=O)c1 [Example 57, 3-((4-((4-(3-(5-(tert-Butyl)-3-(2-hydroxyethoxy)-2-methoxyphenyl)ureido)naphthalen-1-yl)oxy)pyridin-2-yl)amino)-5-methoxybenzamide]	1.1 nM	7.8 nM	92.9 nM	50.6%
2480 nM	38 nM	37 nM	> 692 nM	COc1cc(Nc2cc(Oc3ccc(NC(=O)Nc4cc(C(C)(C)C)cc([S+](C)[O-])c4OC)c4ccccc34)ccn2)cc(C(N)=O)c1 (centres unmarked) [Example 55, 3-((4-((4-(3-(5-(tert-Butyl)-2-methoxy-3-(methylsulfinyl)phenyl)ureido)naphthalen-1-yl)oxy)pyridin-2-yl)amino)-5-methoxybenzamide]	0.6 nM	6.2 nM	31.2 nM	51.7%
1560 nM	12 nM	22 nM	> 1240 nM	COCCOCCOCCNC(=O)c1cc(Nc2cc(Oc3ccc(NC(=O)Nc4cc(C(C)(C)C)cc(CC(N)=O)c4OC)c4ccccc34)ccn2)cc(OC)c1 [Example 53, 3-((4-((4-(3-(3-(2-Amino-2-oxoethyl)-5-(tert-butyl)-2-methoxyphenyl)ureido)naphthalen-1-yl)oxy)pyridin-2-yl)amino)-5-methoxy-N-(2-(2-(2-methoxyethoxy)ethoxy)ethyl)benzamide]	1.1 nM	6 nM	52.5 nM	22.3%

— patent US9890185B2, “Urea derivatives useful as kinase inhibitors” (Respivert Limited, priority 2013, dated 2018)
